From paper PMC4579598 (2015) come the findings set out here.

The test system of assay [1] is myc2345 (DNA, G4) TGAGGGTGGGGAGGGTGGGGAA
Kind of assay: displacement of DAOTA-M2 followed by fluorescence lifetime (FLIM). The note with it: 100 mM K+; 10 mM lithium cacodylate pH 7.3; DAOTA-M2 displaced, duplex DNA present.

Assay [2] shares this test system. Kind of assay: fluorescence emission titration. The note with it: 100 mM K+; 10 mM lithium cacodylate pH 7.3, 2 μM compound; per binding motif; log Ka 5.7-6.1 over all DNAs.
The subject of assay [3] is ds17 (DNA, duplex) CCAGTTCGTAGTAACCC/GGGTTACTACGAACTGG
Kind of assay: fluorescence emission titration. The note with it: 100 mM K+; 10 mM lithium cacodylate pH 7.3, 2 μM compound; per binding motif; log Ka 5.7-6.1 over all DNAs.

Assay [4] has as its system ss17 (DNA, single strand) CCAGTTCGTAGTAACCC
Kind of assay: fluorescence emission titration. The following applies: 100 mM K+; 10 mM lithium cacodylate pH 7.3, 2 μM compound; per five-base motif; log Ka 5.7-6.1 over all DNAs.

Assay [5] deals with TBA (DNA, G4) GGTTGGTGTGGTTGG
Description: fluorescence emission titration. The following applies: 100 mM K+; 10 mM lithium cacodylate pH 7.3, 2 μM compound; log Ka 5.7-6.1 over all DNAs.

Assay [6] deals with PDGF-A (DNA, G4) GGAGGCGGGGGGGGGGGGGCGGGGGCGGGGGCGGGGGAGGGGCGCGGC
Description: fluorescence emission titration. The following applies: 100 mM K+ (DNA annealed in 25 mM K+); 10 mM lithium cacodylate pH 7.3, 2 μM compound; per binding motif; log Ka 5.7-6.1 over all DNAs.

Turning to `NCCOc1cc(C(=O)Nc2cc(OCCN)c3ccccc3n2)nc(C(=O)Nc2cc(OCCN)c3ccccc3n2)c1`, the binding result in assay [1] is “yes”.

As for `c1cc2oc3cccc4c3[c+]3c2c(c1)n(CCN1CCOCC1)c1cccc(c13)n4CCN1CCOCC1`, the binding entry in assay [2], in assay [3], in assay [4] and in assay [5] was “yes” throughout. This compound also showed a Ka in assay [6] of 761000 M⁻¹.
